Patent publication US20090258046A1, “COMPOSITION, FORMULATIONS AND KIT FOR TREATMENT OF RESPIRATORY AND LUNG DISEASE WITH NON-GLUCOCORTICOID STEROIDS AND/OR UBIQUINONE AND A BRONCHODILATING AGENT” (priority 2001, published 2009)

How the values were obtained:
[1] = system: Intracellular adenosine in various Rat Tissues; assay: In vivo effect on tissue adenosine levels in rats (HPLC of 1,N6-ethenoadenosine); design: species or system Fischer 344 rats; settings: for Intracellular adenosine, Brain / Intracellular adenosine, Heart / Intracellular adenosine, Liver: mean ± SEM
Text: […] […] Hearts were removed from animals and flash frozen in liquid nitrogen with 10 seconds of death. Liver and lungs were removed en bloc and flash frozen with 30 seconds of death. Brain tissue was subsequently dissected.

[2] = system: HT-29 SF cells; assay: Reversal of DHEA-mediated growth inhibition by medium supplements; type: cell-based, human; settings: 25 μM DHEA, 48 hour treatment; 2 μM MVA, 80 μM SQ, 15 μg/ml CH, RN 30 μM each, DN 20 μM each
Method: RN plus DN, or MVA plus CH plus RN, or medium that was not supplemented. All compounds were obtained from Sigma Chemical Co. (St. Louis, Mo.) Cholesterol was solubilized in ethanol immediately before use. […] In A, the medium was supplemented with 2 μM MVA, 80 μM SQ, 15 μg/ml CH, or MVA plus CH (MVA+CH) or was not supplemented (CON). […] RN plus DN (RN+DN); or MVA plus CH plus RN (MVA+CH+RN). […] Columns represent cell growth percentage of untreated controls; bars represent SEM. Increase in cell number in untreated controls was […]. Each data point represents quadruplicate dishes from four independent experiments. Statistical analysis was performed using Student's t test κ ρ<0.01; φ ρ<, 0.001; compared to treated controls.

[3] = system: HT-29 SF cells; assay: Reversal of DHEA effect on cell cycle by medium supplements (flow cytometry); type: cell-based, human; settings: for prevention of DHEA-induced S phase depletion: 2 FM MVA, 15 Fg/ml CH, RN 30 FM
[4] = system: HT-29 SF cells; assay: DHEA effect on cell cycle distribution (flow cytometry, propidium iodide); type: cell-based, human
[5] = system: HT-29 SF cells; assay: DHEA effect on cell growth (Coulter counter cell number)
Method: Cell cultures, HT-29 SF cells, which represent a subline of HY-29 cells (ATCC, Rockville, Md.) and are adapted for growth in completely defined serum-free PC-1 medium (Ventrex, Portland, Me.), were obtained. Stock cultures were maintained in this medium at 37° (in a humidified atmosphere containing 5% CO2).

[6] = target: purified G6PDH (Homo sapiens, UniProt P11413); assay: Enzymatic assay of purified G6PDH (absorbance at 340 nm); settings: in vitro
Sequence of purified G6PDH (P11413 whole entry): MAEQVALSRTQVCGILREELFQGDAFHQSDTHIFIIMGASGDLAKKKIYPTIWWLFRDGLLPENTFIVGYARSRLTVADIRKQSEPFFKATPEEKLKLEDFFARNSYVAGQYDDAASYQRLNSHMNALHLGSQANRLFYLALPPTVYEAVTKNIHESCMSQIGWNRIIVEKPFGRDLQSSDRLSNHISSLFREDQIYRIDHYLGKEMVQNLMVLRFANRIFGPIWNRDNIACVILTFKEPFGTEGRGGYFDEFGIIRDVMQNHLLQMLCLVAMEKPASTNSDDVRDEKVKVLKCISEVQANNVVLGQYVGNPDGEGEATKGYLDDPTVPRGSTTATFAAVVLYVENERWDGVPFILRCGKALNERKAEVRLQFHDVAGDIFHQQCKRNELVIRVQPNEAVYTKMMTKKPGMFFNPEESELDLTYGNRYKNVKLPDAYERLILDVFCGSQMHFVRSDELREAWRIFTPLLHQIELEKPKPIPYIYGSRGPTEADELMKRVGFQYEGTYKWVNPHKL
Method: All experiments were repeated 4 times.
A second group was added different concentrations of a CoQ of long side chain (in triplicate), and a third group received a CoQ of short side chain (in triplicate), both at various doses in the μM range.
The reaction was started by addition of the enzyme, and the increase in absorbance at 340 nm was measured for 5 minutes. Each data point was conducted in triplicate, and the fill experiment was repeated 4 times.

[7] = folinic acid 50 mg/kg intraperitoneally once daily for fourteen days
[8] = high dose methyltestosterone daily for two weeks, versus control
[9] = methyltestosterone 40 mg/kg by gavage once daily for fourteen days

Nc1nc(=O)c2c([nH]1)NCC(CNc1ccc(C(=O)N[C@@H](CCC(=O)O)C(=O)O)cc1)N2C=O (mixture of isomers) [Folinic Acid, Folinic acid]
Intracellular adenosine, Brain [1, 7]: 0.72 ± 0.09 nmols/mg protein
Intracellular adenosine, Heart [1, 7]: 12.4 ± 2.1 nmols/mg protein
Intracellular adenosine, Liver [1, 7]: 16.4 ± 2.4 nmols/mg protein
effect on adenosine levels, all organs studied ([1]; folinic acid administered alone): increase
effect of coadministration on steroid-mediated adenosine depletion ([1]; folinic acid coadministered with DHEA or methyltestosterone): completely abrogated

CC(C)CCC[C@@H](C)[C@H]1CC[C@H]2[C@@H]3CC=C4C[C@@H](O)CC[C@]4(C)[C@H]3CC[C@]12C [CH, cholesterol]
reversal of DHEA-induced growth inhibition [2]: no such effect
prevention of DHEA-induced S phase depletion ([3]; 48 hours): very little effect
prevention of DHEA-induced S phase depletion ([3]; 72 hours): no effect

C[C@]12CC[C@H](O)CC1=CC[C@@H]1[C@@H]2CC[C@]2(C)C(=O)CC[C@@H]12 [DHEA, dehydroepiandrosterone]
proportion of cells in S phase ([4]; 200 μM DHEA, after 24 hours, continued through the treatment): decreased
overall effect on cell cycle ([4]; 25-200 μM DHEA, 24-72 hours): G1 block in HT-29 SF cells in a time- and dose-dependent manner
G2M phase cells ([4]; 25 or 50 μM DHEA, after 48 hours): transient increase
percentage of cells in G1 phase ([4]; 25 or 50 μM DHEA, after 72 hours): increased
cell cycle distribution ([4]; 25 or 50 μM DHEA, after the initial 24 hours): unchanged
proportion of cells in S phase ([4]; 25 or 50 μM DHEA, as time of exposure increased): progressively decreased
cell morphology ([3]; DHEA exposure (data not shown)): rounded shape
proportion of cells in S phase ([3]; with increasing exposure time (48 and 72 hours)): progressively reduced
inhibition of growth ([5]; 0-200 μM DHEA, 0-72 hours): time- and dose-dependent inhibition of growth
exposure time after which cell number was reduced compared to controls ([5]; 12.5 μM DHEA): 72 h
exposure time after which cell number was reduced compared to controls ([5]; 25 μM DHEA): 48 h
exposure time after which cell number was reduced compared to controls ([5]; 50 μM DHEA): 48 h
exposure time after which cell number was reduced compared to controls ([5]; 200 μM DHEA): 24 h
inhibition of G6PDH enzyme activity (in words) ([6]; various doses in the μM range, compared to controls): inhibited the enzyme activity in a statistically significant manner
inhibition of the activity of purified G6PDH compared to control ([6]; concentration not given): 72%

C[C@@](O)(CCO)CC(=O)O [MVA, mevalonic acid]
reversal of DHEA-induced growth inhibition [2]: partially overcome
prevention of DHEA-induced S phase depletion ([3]; 48 hours): partially prevented
prevention of DHEA-induced S phase depletion ([3]; 72 hours): not
prevention of DHEA-induced rounded shape ([3]; supplement added to culture medium (data not shown)): prevented

C[C@]12CCC(=O)C=C1CC[C@@H]1[C@@H]2CC[C@@]2(C)[C@H]1CC[C@]2(C)O [Methyl-testosterone, methyltestosterone]
effect on adenosine across organs ([1]; administered daily for two weeks): multi-organ depletion of adenosine
depletion of adenosine in brain [1, 8]: 34%
depletion of adenosine in heart [1, 8]: 22%
Intracellular adenosine, Brain [1, 9]: 0.42 ± 0.06 nmols/mg protein
Intracellular adenosine, Heart [1, 9]: 8.3 ± 1.0 nmols/mg protein
Intracellular adenosine, Liver [1, 9]: 16.5 ± 0.9 nmols/mg protein
Intracellular adenosine, Brain ([1]; methyltestosterone 120 mg/kg): 0.32 ± 0.03 nmols/mg protein
Intracellular adenosine, Heart ([1]; methyltestosterone 120 mg/kg): 6.0 ± 0.4 nmols/mg protein
Intracellular adenosine, Liver ([1]; methyltestosterone 120 mg/kg): 5.1 ± 0.5 nmols/mg protein

CC(C)=CCC/C(C)=C/CC/C(C)=C/CC/C=C(\C)CC/C=C(\C)CCC=C(C)C [SQ, squalene]
reversal of DHEA-induced growth inhibition [2]: no such effect
